Test results reported in patent publication US20260042770A1, “NOVEL SULFONES AND THEIR USE AS NEUROPROTECTIVE AND/OR NEURORESTORATIVE AGENTS” (GENECODE, priority 2022, published 2026).

Target: T1, GFRα1-RET (Homo sapiens, UniProt P56159)
T1 construct: expressed in transfected cells; host or cells: MG87 murine fibroblasts stably transfected with PathDetect Elk-1, GFRα1 and RET
T1 sequence (P56159 25-429 limits assumed): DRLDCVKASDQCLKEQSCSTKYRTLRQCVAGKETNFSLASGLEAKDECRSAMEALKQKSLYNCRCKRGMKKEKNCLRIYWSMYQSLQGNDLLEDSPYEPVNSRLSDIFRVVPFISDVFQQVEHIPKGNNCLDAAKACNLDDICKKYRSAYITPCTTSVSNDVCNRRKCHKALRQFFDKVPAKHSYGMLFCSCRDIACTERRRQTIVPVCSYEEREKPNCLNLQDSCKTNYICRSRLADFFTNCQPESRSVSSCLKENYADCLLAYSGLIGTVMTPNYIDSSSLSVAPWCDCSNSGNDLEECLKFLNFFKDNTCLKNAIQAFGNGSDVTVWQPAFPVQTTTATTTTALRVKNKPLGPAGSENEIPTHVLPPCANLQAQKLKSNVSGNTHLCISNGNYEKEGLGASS
Test: Elk1 luciferase reporter-gene assay in cells expressing GFRα1-RET
Type: cell-based
Details: agonist/activator activity of Elk1 signaling; MG87 murine fibroblast stably transfected with PathDetect Elk-1, GFRα1 and RET; 6 concentrations, duplicate, two independent runs
Description: For EC50 determination, a dose-response test was performed using 6 concentrations of each tested compound. Dose-response curves were fitted using the sigmoidal dose-response (variable slope) analysis in GraphPad Prism program (Graph Pad Inc) and EC50 of agonist/activator activity was calculated. Dose-response experiments were all performed in duplicate, two times independently.

SMILES	EC50 [µM]
CCC(CC)S(=O)(=O)c1ccc(OC)c(N2CCN(C(=O)c3ccc(F)cc3C(F)(F)F)CC2)c1 [Cpd 001, [4-[5-(1-ethylpropylsulfonyl)-2-methoxy-phenyl]piperazin-1-yl]-[4-fluoro-2-(trifluoromethyl)phenyl]methanone]	10 to 50
COc1ccc(S(=O)(=O)C2CCN(c3ccccc3)CC2)cc1N1[C@@H]2CC[C@H]1CN(C(=O)c1ccc(F)cc1Cl)C2 [Cpd 027, (2-chloro-4-fluoro-phenyl)-[(1S,5R)-8-[2-methoxy-5-[(1-phenyl-4-piperidyl)sulfonyl]phenyl]-3,8-diazabicyclo[3.2.1]octan-3-yl]methanone]	< 1
CCC(CCc1ccccc1)S(=O)(=O)c1ccc(OC)c(N2C3CCC2CN(C(=O)c2ccc(F)cc2Cl)C3)c1 (racemic) [Cpd 025, (2-chloro-4-fluoro-phenyl)-[(1S,5R)-8-[5-[(1SR)-1-ethyl-3-phenyl-propyl]sulfonyl-2-methoxy-phenyl]-3,8-diazabicyclo[3.2.1]octan-3-yl]methanone]	1 to 10
COc1ccc(S(=O)(=O)C2CCN(CCc3ccccc3)CC2)cc1N1[C@@H]2CC[C@H]1CN(C(=O)c1ccc(F)cc1Cl)C2 [Cpd 028, (2-chloro-4-fluoro-phenyl)-[(1S,5R)-8-[2-methoxy-5-[[1-(2-phenylethyl)-4-piperidyl]sulfonyl]phenyl]-3,8-diazabicyclo[3.2.1]octan-3-yl]methanone]	1 to 10
CCC(CC)S(=O)(=O)c1ccc(OC)c(N2[C@@H]3CC[C@H]2CN(C(=O)c2ccc(F)cc2Cl)C3)c1 [Cpd 005, (2-chloro-4-fluoro-phenyl)-[(1S,5R)-8-[5-(1-ethylpropylsulfonyl)-2-methoxy-phenyl]-3,8-diazabicyclo[3.2.1]octan-3-yl]methanone]	1 to 10
CC(C)(C)CS(=O)(=O)c1cc(Cl)c(Cl)c(N2[C@@H]3CC[C@H]2CN(C(=O)c2ccc(F)cc2Cl)C3)c1 [Cpd 035, (2-chloro-4-fluoro-phenyl)-[(1S,5R)-8-[2,3-dichloro-5-(2,2-dimethylpropylsulfonyl)phenyl]-3,8-diazabicyclo[3.2.1]octan-3-yl]methanone]	< 1
CCC(CCCc1ccccc1)S(=O)(=O)c1ccc(OC)c(N2C3CCC2CN(C(=O)c2ccc(F)cc2Cl)C3)c1 (racemic) [Cpd 026, (2-chloro-4-fluoro-phenyl)-[(1S,5R)-8-[5-[(1SR)-1-ethyl-4-phenyl-butyl]sulfonyl-2-methoxy-phenyl]-3,8-diazabicyclo[3.2.1]octan-3-yl]methanone]	1 to 10
